Tests used:
[1] = system: UM cell line MEL270; experiment: Screen of PAC-1 in combination with kinase inhibitors, percent cell death; format: cell-based; conditions: MEL270, 72-hour incubation, single agents and combination at the same concentrations (FIG. 2)
Excerpt: FIG. 2. […] These three types of fusion proteins are key driver alterations in multiple cancer types.

[2] = cited from earlier work
[3] = system: ROS1-rearranged lung cancers; conditions: cited from earlier work
[4] = system: 92.1; experiment: PAC-1 single agent IC50 in uveal melanoma cell line, 72-hour incubation; format: cell-based; conditions: 92.1, GNAQ Mutant Q209L, error s.e.m.
Excerpt: (§1) UM cell lines express procaspase-3 (FIG. 1), and PAC-1 has activity as a single agent in a panel of UM cell lines (Table D). [table]

[5] = system: MEL202; experiment: as above; format: cell-based; conditions: MEL202, GNAQ Mutant Q209L, R210K, error s.e.m.
Excerpt: as §1

[6] = system: MEL270; experiment: as above; format: cell-based; conditions: MEL270, GNAQ Mutant Q209P, error s.e.m.
Excerpt: as §1

[7] = system: MEL285; experiment: as above; format: cell-based; conditions: MEL285, GNAQ/11 WT, error s.e.m.
Excerpt: as §1

[8] = system: MEL290; experiment: as above; format: cell-based; conditions: MEL290, GNAQ/11 WT, error s.e.m.
Excerpt: as §1

[9] = system: OMM1; experiment: as above; format: cell-based; conditions: OMM-1, OMM1, GNA11 Mutant Q209L, error s.e.m.
Excerpt: as §1

[10] = system: OMM2.5; experiment: as above; format: cell-based; conditions: OMM2.5, GNAQ Mutant Q209P, error s.e.m.
Excerpt: as §1

[11] = PAC-1 clinical study in human patients, safety; format: in vivo
Experimental: PAC-1 has been dosed in 34 human patients through 7 dose levels of PAC-1 (range: 75-750 mg). Two patients progressed during the first cycle of PAC-1 therapy. Thirty-two patients received PAC-1 for at least 2 dosing cycles (a cycle is 21 days of daily dosing followed by 7 days of no drug). As a result of stable disease responses, six patients received PAC-1 for 4 cycles, three patients received PAC-1 for 6 cycles and two patients received PAC-1 for 10 cycles.

[12] = GLP dog PK/preclinical PAC-1 toxicity studies; format: in vivo

IC50 [4] [µM]	IC50 [5] [µM]	IC50 [6] [µM]	IC50 [7] [µM]	IC50 [8] [µM]	IC50 [9] [µM]	IC50 [10] [µM]	SMILES	Percent cell death [1] [%]	treatment-related adverse events of any grade: myalgias ([2]; n=27/119) [%]	treatment-related adverse events of any grade: nausea ([2]; n=33/119) [%]	treatment-related adverse events of any grade: paresthesias ([2]; n=34/119) [%]	treatment-related adverse events of any grade: dysgeusia ([2]; n=50/119) [%]	treatment-related adverse events of any grade: fatigue/asthenia ([2]; n=55/119) [%]	Disease control and progression-free survival [3]	serious adverse events (SAEs) associated with PAC-1 administration ([11]; 34 human patients, 7 dose levels, 75-750 mg)	neurotoxicity associated with PAC-1 dosing ([11]; neurological and neurocognitive assessments through dose level 7 (750 mg))	Brain tissue findings [12]
–	–	–	–	–	–	–	CN1CCN(c2ccc(C(=O)Nc3n[nH]c4ccc(Cc5cc(F)cc(F)c5)cc34)c(NC3CCOCC3)c2)CC1 [entrectinib]	~16	23	28	29	42	46	durable disease control and prolonged progression-free survival	–	–	–
3.6 ± 0.7	10.3 ± 0.2	9.8 ± 0.6	7.4 ± 2.6	11.7 ± 1.2	4 ± 0.8	9.5 ± 0.5	C=CCc1cccc(/C=N/NC(=O)CN2CCN(Cc3ccccc3)CC2)c1O [PAC-1]	~16	–	–	–	–	–	–	No serious adverse events	no conclusive signs of neurotoxicity	brain tissue changes observed

Reference: US12090153B2, “Combination therapy for the treatment of uveal melanoma” (The Board of Trustees of the University of Illinois, priority 2018, dated 2024)
